Test results published in patent US20190194279A1, “Wound Healing Peptide” (James Cook University, priority 2016, published 2019).
Entries after “also recorded” stand apart in the source; their conditions may differ. Where no end group is shown, it is not given here.

Experiments:
H69 cells = test: Cell proliferation monitoring in real time using xCELLigence (Example 2, 200 nM, 48 h); format: cell-based, human; conditions: 200 nM peptide
Description: H69 cell line, non-malignant cholangiocyte cell line was obtained from Dr. Gregory J. Gores, Mayo Clinic, Rochester, Minn.^34. H69 cells were grown and maintained as previously described^34 in DMEM/F12 (Life Technologies) containing 1× antibiotic/antimycotic and 15 mM HEPES, supplemented with 10% fetal bovine serum (FBS) (Gibco, Scotland) at 37 C and 5% incubator. Cell proliferation assays were performed with modified DMEM/F12 media supplemented with 0.5% FBS and particular hormone and growth factors in a certain concentration range as listed in the previous study^34.
Proliferation study in real time was performed using xCELLigence SP system (ACEA Biosciences) as described previously^34. H69 cells were plated into a 96-well xCELLigence E-plate (ACEA Biosciences) at a density of 2000 cells/well; then placed in the xCELLigence system positioned in a 5% CO2 incubator at 37° C. and monitored overnight^47. Then, the complete media was replaced with 180 μl of starvation media (modified DMEM/F12 media supplemented with […] as described previously^34) and incubated for at least 6 hour. Treatments were added to each well in a total volume of 20 μl to provide 200 nM final concentrations. […] Cell proliferation rate was calculated as the relative numbers of treated cells compared to control cells over time (48 hours in culture). […] Each treatment was measured in quadruplicate.

[1] = tested on: skin-deep wound on the crown of the head; format: in vivo, BALB/c mice; conditions: mouse; for day 4 wound healing relative to controls, result in words (Example 3): 56 pmoles topical daily days 0-4, relative to peptide control
Description: These studies were conducted with the approval of the James Cook University Small Animal Ethics Committee, applications A1806 and A2204, as described^6. Briefly, 4-5 female BALB/c mice per group were anesthetized (intraperitoneal xylazine 16 mg/kg; ketamine 80 mg/kg), after which a skin-deep wound on the crown of the head was inflicted using a 5 mm biopsy punch (Zivic instruments). […] Wounds were photographed daily and after blinding treatment groups the area of the lesion was measured with ImageJ software and plotted as percent of wound closure from original wound images. […] Each mouse wounding study was conducted at least twice to provide reproducibility.
Day 4 wound healing were assessed using peptides as described herein (Ov-GRN-1, Ov-GRN1-35, Ov-GRN8-38, Ov-GRN12-34, Ov-GRN12-35_3s, GRN24-3ala, GRN24-P2A, GRN24-P4A, and GRN27sps).

H69 human cholangiocytes = test: Cell proliferation monitoring in real time using xCELLigence (Example 1, day 4); format: cell-based; conditions: for increase in cell proliferation over peptide controls: at 400 nM; for cell proliferation, result in words: concentrations tested 10 nM-2 μM
Description: Mammalian Cell Culture The non-malignant cholangiocyte cell line H69 is a SV40-transformed human bile duct epithelial cell line derived from human liver, kindly provided by Dr. Gregory J. Gores, Mayo Clinic, Rochester, Minn. H69 cells^23, 29, 30 were maintained in T75 cm^2 vented flasks (Corning) as monolayers as described^31 with minor modifications. Cells were maintained with regular splitting using 0.25% trypsin (Life Technologies) every 2-5 days in complete media [RPMI (Sigma) with growth factor-supplemented specialist complete media^30 [DMEM/F12 with high glucose, 10% FCS, 1×antibiotic/antimycotic, 25 μg/ml adenine, 5 μg/ml insulin, 1 μg/ml epinephrine, 8.3 μg/ml holo-transferrin, 0.62 μg/ml, hydrocortisone, 13.6 ng/ml T3 and 10 ng/ml EGF—Life Technologies]. Low nutrient media for cell proliferation assays was 5% complete media, i.e. 0.5% FCS and 1/20th of the growth factor concentrations listed above for complete media. The identities (human-derived) of the cell line were confirmed with […] (STR) analysis in January 2015 (15/15 positive loci across 2 alleles) and mycoplasma free at the DNA Diagnostics Centre (DDC)-medical (U.S.A.), accredited/certified by CAP, ISO/IEC 17025:2005 through ACLASS.
Cell proliferation monitoring in real time using xCELLigence Cells were seeded at 1,500 cells/well in 180 μl complete media (above) in E-plates (ACEA Biosciences) and grown overnight while monitored with an xCELLigence SP system (ACEA Biosciences) which monitors cellular events in real time by measuring electrical impedance across interdigitated gold micro-electrodes integrated into the base of tissue culture plates^32. Cells were washed three times with PBS prior to addition of 180 μl of low nutrient media (above) and incubated for a minimum of 6 h before further treatment. Treatments were prepared at 10× concentration and added to each well in a total volume of 20 μl. The xCELLigence system recorded cell indexes at intervals of one hour for 5-6 days following treatment. Readings for the cell index were normalized prior to treatment and cell proliferation ratios were determined from biological quadruplicates and represent the relative numbers of cells compared to control cells at day 4. Comparisons of induction of cell proliferation in response to treatments were accomplished using two-way ANOVA test with Dunnett's multiple comparison correction, using GraphPad Prism 6.02.

CADPVYTCRPGQTCCRGLHGYGCC [GRN24P2A]
proliferation rate relative to the control peptide (H69 cells): 131.7%

Ov-GRN12-34: minimal Ov-GRN-1 sequence that contains the four cysteine residues, two disulfide bonds (CPDPVYTCRPGQTCARGLHGYGC; disulfide (positions not given here))
day 4 wound healing relative to controls, result in words (Example 3) [1]: significant increases in wound healing

CPDPVYTCRPGQTCCRGLHGYGCC [Ov-GRN12-35_3s]
wound healing activity in vivo compared with the other Ov-GRN-1 peptides, in words [1]: no more active in vivo than the other Ov-GRN-1 peptides | day 4 wound healing relative to controls, result in words (Example 3) [1]: significant increases in wound healing | increase in cell proliferation over peptide controls (H69 human cholangiocytes): 26% | cell proliferation, result in words (H69 human cholangiocytes): most potent peptide in the cell proliferation assay | increase in cell growth compared to control peptide (H69 human cholangiocytes; final concentration of 2 (unit not given), day 4): 41% | final concentrations with significantly increased cell proliferation (p<0.05) (H69 human cholangiocytes; four days after single application): > 15 nM

Ov-GRN1-35: truncated Ov-GRN-1 peptide, residues 1-35, four cysteines, two disulfide bonds, Cys IV and Cys VI replaced with alanine (MDTLQPIRSPSCPDPVYTCRPGQTCARGLHGYGCA; disulfide (positions not given here))
day 4 wound healing relative to controls, result in words (Example 3) [1]: significant increases in wound healing | increase in cell proliferation over peptide controls (H69 human cholangiocytes): 9%

CPDAVYTCRPGQTCCRGLHGYGCC [P4A]
proliferation rate relative to the control peptide (H69 cells): 141.6%

Ov-GRN8-38: truncated Ov-GRN-1 peptide, residues 8-38, two disulfide bonds (RSPSCPDPVYTCRPGQTCARGLHGYGCAPMD; disulfide (positions not given here))
day 4 wound healing relative to controls, result in words (Example 3) [1]: significant increases in wound healing

CADAVYTCRAGQTCCRGLHGYGCC [GRN3Ala]
effect on cell proliferation compared to the control peptide, result in words (H69 cells): did not have statistically significant effect | effect on cell proliferation compared to the control peptide, result in words (H69 cells; listed as SEQ ID NO:9): did not enhance cell proliferation

carp granulin1-30: N-terminal 30 residues of carp granulin-1 with Cys IV and Cys VI replaced with alanine residues (VIHCDAATICPDGTTCALSPYGVWYCAPFS) [reference compound]
maximum proliferation over peptide controls (H69 human cholangiocytes; at 32 nM): 9% | cell proliferation, result in words (H69 human cholangiocytes): minimal cell proliferation (non-significant); also recorded: no substantial proliferation

CPDPVYTCRAGQTCCRGLHGYGCC [P10A]
proliferation rate relative to the control peptide (H69 cells): 131.4%
